Source: ChEMBL document CHEMBL1629679, “Extended-spectrum cephalosporinases in Pseudomonas aeruginosa” (2009)
Converted amounts (≈) assume the structure as drawn.

What was measured:
Pseudomonas aeruginosa [1] = experiment: Antimicrobial activity against AmpC overproducing Pseudomonas aeruginosa isolate Pae-beta-25 with PDC-6 variant by Etest; format: functional
Pseudomonas aeruginosa [2] = experiment: microbe, parasite or virus in culture; format: functional; conditions: KG2505a
Pseudomonas aeruginosa [3] = experiment: Antimicrobial activity against AmpC overproducing Pseudomonas aeruginosa isolate Pae-beta-07 with PDC-2 variant by Etest; format: functional
Pseudomonas aeruginosa [4] = experiment: Antimicrobial activity against AmpC overproducing Pseudomonas aeruginosa isolate Pae-beta-08 with PDC-2 variant by Etest; format: functional
Pseudomonas aeruginosa [5] = experiment: Antimicrobial activity against AmpC overproducing Pseudomonas aeruginosa isolate Pae-beta-21 with PDC-4 variant by Etest; format: functional
Pseudomonas aeruginosa [6] = experiment: Antimicrobial activity against AmpC overproducing Pseudomonas aeruginosa isolate Pae-beta-24 with PDC-5 variant by Etest; format: functional
Pseudomonas aeruginosa [7] = experiment: Antimicrobial activity against Pseudomonas aeruginosa isolate Pae-beta-31 with PDC-9 variant by Etest; format: functional
Pseudomonas aeruginosa [8] = experiment: Antimicrobial activity against AmpC overproducing Pseudomonas aeruginosa isolate Pae-beta-22 with PDC-4 variant by Etest; format: functional
Pseudomonas aeruginosa [9] = experiment: microbe, parasite or virus in culture; conditions: 12B
Pseudomonas aeruginosa [10] = experiment: Antimicrobial activity against AmpC overproducing Pseudomonas aeruginosa isolate Pae-beta-16 with PDC-3 variant by Etest; format: functional
Pseudomonas aeruginosa [11] = experiment: Antimicrobial activity against AmpC overproducing Pseudomonas aeruginosa isolate Pae-beta-14 with PDC-2 variant by Etest; format: functional
Pseudomonas aeruginosa [12] = experiment: Antimicrobial activity against AmpC overproducing Pseudomonas aeruginosa isolate Pae-beta-12 with PDC-2 variant by Etest; format: functional
Pseudomonas aeruginosa [13] = experiment: Antimicrobial activity against AmpC overproducing Pseudomonas aeruginosa isolate Pae-beta-20 with PDC-4 variant by Etest; format: functional
Pseudomonas aeruginosa [14] = experiment: microbe, parasite or virus in culture; format: functional; conditions: KG2505a; remark: listed apart in the source
Pseudomonas aeruginosa [15] = experiment: Antimicrobial activity against AmpC overproducing Pseudomonas aeruginosa isolate Pae-beta-04 with PDC-2 variant by Etest; format: functional
Pseudomonas aeruginosa [16] = experiment: Antimicrobial activity against Pseudomonas aeruginosa isolate Pae-beta-30 with PDC-8 variant by Etest; format: functional
Pseudomonas aeruginosa [17] = experiment: Antimicrobial activity against AmpC overproducing Pseudomonas aeruginosa isolate Pae-beta-03 with PDC-2 variant by Etest; format: functional
Pseudomonas aeruginosa [18] = experiment: Antimicrobial activity against Pseudomonas aeruginosa isolate Pae-beta-02 with PDC-1 variant by Etest; format: functional
Pseudomonas aeruginosa [19] = experiment: Antimicrobial activity against AmpC overproducing Pseudomonas aeruginosa isolate Pae-beta-15 with PDC-2 variant by Etest; format: functional
Pseudomonas aeruginosa [20] = experiment: Antimicrobial activity against Pseudomonas aeruginosa isolate Pae-beta-05 with PDC-2 variant by Etest; format: functional
Pseudomonas aeruginosa [21] = experiment: Antimicrobial activity against AmpC overproducing Pseudomonas aeruginosa isolate Pae-beta-17 with PDC-3 variant by Etest; format: functional
Pseudomonas aeruginosa [22] = experiment: Antimicrobial activity against AmpC overproducing Pseudomonas aeruginosa isolate Pae-beta-11 with PDC-2 variant by Etest; format: functional
Pseudomonas aeruginosa [23] = experiment: Antimicrobial activity against Pseudomonas aeruginosa isolate Pae-beta-29 with PDC-8 variant by Etest; format: functional
Pseudomonas aeruginosa [24] = experiment: microbe, parasite or virus in culture; conditions: 12B; remark: listed apart in the source
Pseudomonas aeruginosa [25] = experiment: Antimicrobial activity against AmpC overproducing Pseudomonas aeruginosa isolate Pae-beta-06 with PDC-2 variant by Etest; format: functional
Pseudomonas aeruginosa [26] = experiment: microbe, parasite or virus in culture; conditions: PAO1
Pseudomonas aeruginosa [27] = experiment: Antimicrobial activity against AmpC overproducing Pseudomonas aeruginosa isolate Pae-beta-09 with PDC-2 variant by Etest; format: functional
Pseudomonas aeruginosa [28] = experiment: Antimicrobial activity against AmpC overproducing Pseudomonas aeruginosa isolate Pae-beta-32 with PDC-10 variant by Etest; format: functional
Pseudomonas aeruginosa [29] = experiment: Antimicrobial activity against Pseudomonas aeruginosa isolate Pae-beta-19 with PDC-3 variant by Etest; format: functional
Pseudomonas aeruginosa [30] = experiment: microbe, parasite or virus in culture; format: functional; conditions: KG2505a; remark: listed apart in the source
Pseudomonas aeruginosa [31] = experiment: Antimicrobial activity against AmpC overproducing Pseudomonas aeruginosa isolate Pae-beta-18 with PDC-3 variant by Etest; format: functional
Pseudomonas aeruginosa [32] = experiment: microbe, parasite or virus in culture; conditions: 12B; remark: listed apart in the source
Pseudomonas aeruginosa [33] = experiment: Antimicrobial activity against Pseudomonas aeruginosa isolate Pae-beta-01 with PDC-1 variant by Etest; format: functional
Pseudomonas aeruginosa [34] = experiment: microbe, parasite or virus in culture; conditions: isolate Pae-beta-26
Pseudomonas aeruginosa [35] = experiment: microbe, parasite or virus in culture; conditions: 12B; remark: listed apart in the source
Pseudomonas aeruginosa [36] = experiment: Antimicrobial activity against AmpC overproducing Pseudomonas aeruginosa isolate Pae-beta-13 with PDC-2 variant by Etest; format: functional
Pseudomonas aeruginosa [37] = experiment: Antimicrobial activity against AmpC overproducing Pseudomonas aeruginosa isolate Pae-beta-10 with PDC-2 variant by Etest; format: functional
Pseudomonas aeruginosa [38] = experiment: microbe, parasite or virus in culture; format: functional; conditions: KG2505a; remark: listed apart in the source
Pseudomonas aeruginosa [39] = experiment: microbe, parasite or virus in culture; format: functional; conditions: KG2505a; remark: listed apart in the source
Pseudomonas aeruginosa [40] = experiment: Antimicrobial activity against AmpC overproducing Pseudomonas aeruginosa isolate Pae-beta-23 with PDC-5 variant by Etest; format: functional
Pseudomonas aeruginosa [41] = experiment: Antimicrobial activity against AmpC overproducing Pseudomonas aeruginosa isolate Pae-beta-28 with PDC-7 variant by Etest; format: functional
Pseudomonas aeruginosa [42] = experiment: microbe, parasite or virus in culture; format: functional; conditions: 12B
Pseudomonas aeruginosa [43] = experiment: Antimicrobial activity against AmpC overproducing Pseudomonas aeruginosa isolate Pae-beta-27 with PDC-7 variant by Etest; format: functional

## CC(C)(O/N=C(\C(=O)N[C@@H]1C(=O)N2C(C(=O)[O-])=C(C[n+]3ccccc3)CS[C@H]12)c1csc(N)n1)C(=O)O [CEFTAZIDIME]
Pseudomonas aeruginosa [1]
  MIC: 32 µg/mL (≈ 58.5 µM)
Pseudomonas aeruginosa [2]
  MIC: 16 µg/mL (≈ 29.3 µM)
Pseudomonas aeruginosa [3]
  MIC: 16 µg/mL (≈ 29.3 µM)
Pseudomonas aeruginosa [4]
  MIC: 16 µg/mL (≈ 29.3 µM)
Pseudomonas aeruginosa [5]
  MIC: 32 µg/mL (≈ 58.5 µM)
Pseudomonas aeruginosa [6]
  MIC: 64 µg/mL (≈ 117 µM)
Pseudomonas aeruginosa [7]
  MIC: 32 µg/mL (≈ 58.5 µM)
Pseudomonas aeruginosa [8]
  MIC: 16 µg/mL (≈ 29.3 µM)
Pseudomonas aeruginosa [9]
  MIC: 32 µg/mL (≈ 58.5 µM)
Pseudomonas aeruginosa [10]
  MIC: 32 µg/mL (≈ 58.5 µM)
Pseudomonas aeruginosa [11]
  MIC: 16 µg/mL (≈ 29.3 µM)
Pseudomonas aeruginosa [12]
  MIC: 16 µg/mL (≈ 29.3 µM)
Pseudomonas aeruginosa [13]
  MIC: 8 µg/mL (≈ 14.6 µM)
Pseudomonas aeruginosa [14]
  MIC: 16 µg/mL (≈ 29.3 µM)
Pseudomonas aeruginosa [15]
  MIC: 32 µg/mL (≈ 58.5 µM)
Pseudomonas aeruginosa [16]
  MIC: 8 µg/mL (≈ 14.6 µM)
Pseudomonas aeruginosa [17]
  MIC: 16 µg/mL (≈ 29.3 µM)
Pseudomonas aeruginosa [18]
  MIC: 8 µg/mL (≈ 14.6 µM)
Pseudomonas aeruginosa [19]
  MIC: 32 µg/mL (≈ 58.5 µM)
Pseudomonas aeruginosa [20]
  MIC: 32 µg/mL (≈ 58.5 µM)
Pseudomonas aeruginosa [21]
  MIC: 64 µg/mL (≈ 117 µM)
Pseudomonas aeruginosa [22]
  MIC: 16 µg/mL (≈ 29.3 µM)
Pseudomonas aeruginosa [23]
  MIC: 8 µg/mL (≈ 14.6 µM)
Pseudomonas aeruginosa [24]
  MIC: 32 µg/mL (≈ 58.5 µM)
Pseudomonas aeruginosa [25]
  MIC: 16 µg/mL (≈ 29.3 µM)
Pseudomonas aeruginosa [26]
  MIC: 1 µg/mL (≈ 1.83 µM)
Pseudomonas aeruginosa [27]
  MIC: 16 µg/mL (≈ 29.3 µM)
Pseudomonas aeruginosa [28]
  MIC: 32 µg/mL (≈ 58.5 µM)
Pseudomonas aeruginosa [29]
  MIC: 8 µg/mL (≈ 14.6 µM)
Pseudomonas aeruginosa [30]
  MIC: 32 µg/mL (≈ 58.5 µM)
Pseudomonas aeruginosa [31]
  MIC: 128 µg/mL (≈ 234 µM)
Pseudomonas aeruginosa [32]
  MIC: 32 µg/mL (≈ 58.5 µM)
Pseudomonas aeruginosa [33]
  MIC: 8 µg/mL (≈ 14.6 µM)
Pseudomonas aeruginosa [34]
  MIC: 32 µg/mL (≈ 58.5 µM)
Pseudomonas aeruginosa [35]
  MIC: 64 µg/mL (≈ 117 µM)
Pseudomonas aeruginosa [36]
  MIC: 4 µg/mL (≈ 7.32 µM)
Pseudomonas aeruginosa [37]
  MIC: 16 µg/mL (≈ 29.3 µM)
Pseudomonas aeruginosa [38]
  MIC: 4 µg/mL (≈ 7.32 µM)
Pseudomonas aeruginosa [39]
  MIC: 32 µg/mL (≈ 58.5 µM)
Pseudomonas aeruginosa [40]
  MIC: 64 µg/mL (≈ 117 µM)
Pseudomonas aeruginosa [41]
  MIC: 16 µg/mL (≈ 29.3 µM)
Pseudomonas aeruginosa [42]
  MIC: 8 µg/mL (≈ 14.6 µM)
Pseudomonas aeruginosa [43]
  MIC: 16 µg/mL (≈ 29.3 µM)

## C[C@@H](O)[C@H]1C(=O)N2C(C(=O)O)=C(S[C@@H]3CN[C@H](C(=O)N(C)C)C3)[C@H](C)[C@H]12 [MEROPENEM]
Pseudomonas aeruginosa [2]
  MIC: 0.25 µg/mL (≈ 0.652 µM)
Pseudomonas aeruginosa [9]
  MIC: 2 µg/mL (≈ 5.22 µM)
Pseudomonas aeruginosa [14]
  MIC: 0.25 µg/mL (≈ 0.652 µM)
Pseudomonas aeruginosa [24]
  MIC: 2 µg/mL (≈ 5.22 µM)
Pseudomonas aeruginosa [30]
  MIC: 0.25 µg/mL (≈ 0.652 µM)
Pseudomonas aeruginosa [32]
  MIC: 2 µg/mL (≈ 5.22 µM)
Pseudomonas aeruginosa [35]
  MIC: 2 µg/mL (≈ 5.22 µM)
Pseudomonas aeruginosa [38]
  MIC: 0.12 µg/mL (≈ 0.313 µM)
Pseudomonas aeruginosa [39]
  MIC: 0.25 µg/mL (≈ 0.652 µM)
Pseudomonas aeruginosa [42]
  MIC: 1 µg/mL (≈ 2.61 µM)
